These results are taken from patent US20190374563A1, “TREATMENT OF KLEBSIELLA PNEUMONIAE INFECTIONS WITH ANTIBACTERIAL AMINOGLYCOSIDE COMPOUNDS” (Achaogen, Inc., priority 2009, published 2019).

For test [1], the system named is E. coli ATCC 25922 (AECO001). Description: MIC assay, CLSI broth microdilution. Format: cell-based. On the set-up: MIC AECO001: unit not given here. Particulars: for MIC: Escherichia coli. As to the method:
(§1) Minimum inhibitory concentrations (MIC) were determined by reference Clinical and Laboratory Standards Institute (CLSI) broth microdilution methods per M7-A7 [2006]. Quality control ranges utilizing E. coli ATCC 25922, P. aeruginosa ATCC 27853 and S. aureus ATCC 29213, and interpretive criteria for comparator agents were as published in CLSI M100-S17 [2007]. Briefly, serial two-fold dilutions of the test compounds were prepared at 2× concentration in Mueller Hinton Broth. The compound dilutions were mixed in 96-well assay plates in a 1:1 ratio with bacterial inoculum. The inoculum was prepared by suspension of a colony from an agar plate that was prepared the previous day. Bacteria were suspended in sterile saline and added to each assay plate to obtain a final concentration of 5×10^5 CFU/mL. The plates were incubated at 35° C. for 20 hours in ambient air.
(In broth dilution the organism is exposed to a series of concentrations in liquid medium.)

Test [2] concerns P. aeruginosa ATCC 27853 (APAE001). Description: MIC assay, CLSI broth microdilution. Format: cell-based. Particulars: Pseudomonas aeruginosa. As to the method:
as §1

The mark [3] stands for this setting: ATCC25922, read-out: MIC AECO001.
Where [4] appears, read: ATCC27853, read-out: MIC APAE001.

SMILES strings stand for the structures. ≈ marks a conversion by molar mass, not a printed value. Like-named read-outs stand apart in the source and are kept apart here.

Broadly, the MIC is the lowest concentration found to suppress growth. On to `CN[C@@H]1[C@@H](O)[C@@H](O[C@@H]2[C@@H](O)[C@H](O[C@H]3OC(CNC[C@H]4C[C@H](O)CN4)=CC[C@H]3N)[C@@H](N)C[C@H]2NC(=O)[C@@H](O)CN)OC[C@]1(C)O` [Example 53, 6′-(Methyl-4(S)-hydroxy-pyrrolidin-2(R)-yl)-1-(3-amino-2(S)-hydroxy-propionyl)-sisomicin], for which the minimum inhibitory concentration (MIC) in test [1] (setting [3]) is 1 to 16 µg/mL (≈ 1.58 to 25.2 µM); in test [2] (setting [4]), more than 16 µg/mL.

With `CN[C@@H]1[C@@H](O)[C@@H](O[C@@H]2[C@@H](O)[C@H](O[C@H]3OC(CNCCCO)=CC[C@H]3N)[C@@H](N)C[C@H]2NC(=O)[C@@H](O)CN)OC[C@]1(C)O` [Example 54, 6′-(3-Propanol)-1-(3-amino-2(S)-hydroxy-propionyl)-sisomicin], the MIC in test [1] (setting [3]) is less than 1 µg/mL; in test [2] (setting [4]) it was 1 to 16 µg/mL (≈ 1.69 to 27 µM).

On to `CN[C@@H]1[C@@H](O)[C@@H](O[C@@H]2[C@@H](O)[C@H](O[C@H]3OC(CNCC(C)(C)N)=CC[C@H]3N)[C@@H](N)C[C@H]2NC(=O)[C@@H](O)CN)OC[C@]1(C)O` [Example 55, 6′-(2-Methyl-2-amino-propyl)-1-(3-amino-2(S)-hydroxy-propionyl)-sisomicin], for which the MIC in test [1] (setting [3]) was 1 to 16 µg/mL (≈ 1.65 to 26.4 µM); in test [2] (setting [4]), more than 16 µg/mL.

As for `CN[C@@H]1[C@@H](O)[C@@H](O[C@@H]2[C@@H](O)[C@H](O[C@H]3OC(CNCC4(N)CCC4)=CC[C@H]3N)[C@@H](N)C[C@H]2NC(=O)[C@@H](O)CN)OC[C@]1(C)O` [Example 56, 6′-(Methyl-1-amino-cyclobutyl)-1-(3-amino-2(S)-hydroxy-propionyl)-sisomicin], the MIC is less than 1 µg/mL in test [1] (setting [3]) and more than 16 µg/mL in test [2] (setting [4]).

Take `CN[C@@H]1[C@@H](O)[C@@H](O[C@@H]2[C@@H](O)[C@H](O[C@H]3OC(CNC[C@H]4C[C@H](N)C4)=CC[C@H]3N)[C@@H](N)C[C@H]2NC(=O)[C@@H](O)CN)OC[C@]1(C)O` [Example 59, 6′-(Methyl-trans-3-amino-cyclobutyl)-1-(3-amino-2(S)-hydroxy-propionyl)-sisomicin]: the MIC is less than 1 µg/mL in test [1] (setting [3]) and 1 to 16 µg/mL (≈ 1.62 to 25.9 µM) in test [2] (setting [4]).

In the case of `CN[C@@H]1[C@@H](O)[C@@H](O[C@@H]2[C@@H](O)[C@H](O[C@H]3OC(CNC[C@H]4C[C@H](N)C4)=CC[C@H]3N)[C@@H](N)C[C@H]2NC(=O)C2(O)CC(N)C2)OC[C@]1(C)O` (some centres unmarked) [Example 60], the values for the minimum inhibitory concentration (MIC) in test [1] (setting [3]) and in test [2] (setting [4]) were less than 1 µg/mL and 1 to 16 µg/mL (≈ 1.55 to 24.9 µM), respectively.

In the case of `CNCC1=CC[C@@H](N)[C@@H](O[C@H]2[C@H](O)[C@@H](O[C@H]3OC[C@](C)(O)[C@H](NC)[C@H]3O)[C@H](NC(=O)C3(O)CNC3)C[C@@H]2N)O1` [Example 61], the minimal inhibitory concentration (MIC) in test [1] (Table 1, AECO001 is ATCC25922, read-out: MIC AECO001) is less than 1 µg/mL; in test [2] (Table 1, APAE001 is ATCC27853, read-out: MIC APAE001) it was 1 to 16 µg/mL (≈ 1.78 to 28.5 µM). In test [1] (Table 3, E. coli ATCC25922), the “MIC AECO001” value is listed as 1.

As to `CN[C@@H]1[C@@H](O)[C@@H](O[C@@H]2[C@@H](O)[C@H](O[C@H]3OC(CNCCO)=CC[C@H]3N)[C@@H](N)C[C@H]2NC(=O)C2(O)CC(N)C2)OC[C@]1(C)O` (some centres unmarked) [Example 62], the minimum inhibitory concentration (MIC) was less than 1 µg/mL in test [1] (setting [3]) and 1 to 16 µg/mL (≈ 1.65 to 26.5 µM) in test [2] (setting [4]).

Regarding `CN[C@@H]1[C@@H](O)[C@@H](O[C@@H]2[C@@H](O)[C@H](O[C@H]3OC(CNC[C@H]4C[C@H](N)C4)=CC[C@H]3N)[C@@H](N)C[C@H]2NC(=O)C2(O)CNC2)OC[C@]1(C)O` [Example 63], the MIC in test [1] (setting [3]) is less than 1 µg/mL; in test [2] (setting [4]) it was 1 to 16 µg/mL (≈ 1.59 to 25.4 µM).

In the case of `CN[C@@H]1[C@@H](O)[C@@H](O[C@@H]2[C@@H](O)[C@H](O[C@H]3OC(CNC[C@@H]4C[C@H](N)CN4)=CC[C@H]3N)[C@@H](N)C[C@H]2NC(=O)[C@@H](O)CN)OC[C@]1(C)O` [Example 65, 6′-(Methyl-4(S)-amino-pyrrolidin-2(S)-yl)-1-(3-amino-2(S)-hydroxy-propionyl)-sisomicin], the minimum inhibitory concentration (MIC) in test [1] (setting [3]) and in test [2] (setting [4]) was 1 to 16 µg/mL (≈ 1.58 to 25.3 µM) throughout.

On to `CN[C@@H]1[C@@H](O)[C@@H](O[C@@H]2[C@@H](O)[C@H](O[C@H]3OC(CNCC4(CN)CC4)=CC[C@H]3N)[C@@H](N)C[C@H]2NC(=O)[C@@H](O)CN)OC[C@]1(C)O` [Example 66, 6′-(Methyl-1-aminomethyl-cyclopropyl)-1-(3-amino-2(S)-hydroxy-propionyl)-sisomicin], for which the results for the minimal inhibitory concentration (MIC) in test [1] (setting [3]) and in test [2] (setting [4]) were less than 1 µg/mL and 1 to 16 µg/mL (≈ 1.62 to 25.9 µM), respectively.
